Test system: rabbit serum obtained by immunizing a rabbit with the SARS-CoV strain Frankfurt 1
Assay type: binding
Design: Binding of a rabbit serum to linear peptides / Binding of a rabbit serum to looped peptides / Rabbit serum linear peptides / Rabbit serum looped peptides / Binding of a rabbit serum to linear peptides of protein N of SARS-CoV Urbani (Rabbit serum linear peptides) / Binding of a rabbit serum to looped/cyclic peptides of protein N of SARS-CoV Urbani (Rabbit serum looped peptides): unit not given here

Sequence | Rabbit serum linear peptides | Rabbit serum looped peptides | Binding of a rabbit serum to linear peptides | Binding of a rabbit serum to looped peptides | Recognition of the peptide by the rabbit serum
IGAVIIRGHLRMAGH | 0.3 | 0.8 | – | – | –
AVIIRGHLRMAGHPL | 0.3 | 0.6 | – | – | –
VIGAVIIRGHLRMAG | 1.5 | 0.6 | – | – | –
FAGTHITMTTVYHIT | – | – | 0.6 | 0.4 | –
LHEGHQTAAFRDVLV | 0.5 | 0.7 | – | – | –
WYLHEGHQTAAFRDV | 0.3 | 0.0 | – | – | –
TVEELKQLLEQWNLV | – | – | – | – | recognized
RCWYLHEGHQTAAFR | 0.9 | 0.4 | – | – | –
VHATATIPLQASLPF | – | – | 0.1 | 0.6 | –
ARCWYLHEGHQTAAF | 0.3 | 0.6 | – | – | –
TVHATATIPLQASLP | – | – | 0.4 | 0.5 | –
